The supplement of paper PMC10307832

Legend:
Assay in all cases: relative viability (nuclei count vs DMSO), 5 days (fraction); higher = more cells survive
Apatinib + Tozasertib = compound: N#CC1(c2ccc(NC(=O)c3cccnc3NCc3ccncc3)cc2)CCCC1 [Apatinib] + Cc1cc(Nc2cc(N3CCN(C)CC3)nc(Sc3ccc(NC(=O)C4CC4)cc3)n2)n[nH]1 [Tozasertib] (partner 0.1 µM)
Procedure, shortened: (§1)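 Nuclei were stained with Hoechst during a one-step fixation (final 0.05% Triton X-100, 1% formaldehyde, 1 ug/ml Hoechst) carried out 5 days after dosing, then counted on 4× images. The cells, lung cancer lines in 1536-well plates, had been dosed by pin tool the day after seeding with one drug alone or a fixed anchor-drug dose plus five library-drug doses (not always all listed) in √10 steps. Relative viability is the nuclei count in treated wells divided by that in vehicle wells, and each value is the median of duplicate plates.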

Metformin + Decitabine = compound: CN(C)C(=N)NC(=N)N [Metformin] + Nc1ncn([C@H]2C[C@H](O)[C@@H](CO)O2)c(=O)n1 [Decitabine] (partner 2 µM)
Procedure, shortened: as §1

Metformin + Crizotinib = compound: CN(C)C(=N)NC(=N)N [Metformin] + C[C@@H](Oc1cc(-c2cnn(C3CCNCC3)c2)cnc1N)c1c(Cl)ccc(F)c1Cl [Crizotinib] (partner 1 µM)
Procedure, shortened: as §1

Apatinib + Vorinostat = compound: N#CC1(c2ccc(NC(=O)c3cccnc3NCc3ccncc3)cc2)CCCC1 [Apatinib] + O=C(CCCCCCC(=O)Nc1ccccc1)NO [Vorinostat] (partner 1 µM)
Procedure, shortened: as §1

Cell Line	relative viability (Apatinib + Tozasertib; first compound 0.08 µM)	relative viability (Apatinib + Tozasertib; first compound 0.253 µM)	relative viability (Apatinib + Tozasertib; first compound 0.8 µM)	relative viability (Apatinib + Tozasertib; first compound 2.53 µM)	relative viability (Apatinib + Tozasertib; first compound 8 µM)	relative viability (Metformin + Decitabine; first compound 10 µM)	relative viability (Metformin + Decitabine; first compound 31.62 µM)	relative viability (Metformin + Decitabine; first compound 100 µM)	relative viability (Metformin + Decitabine; first compound 316.23 µM)	relative viability (Metformin + Decitabine; first compound 1000 µM)	relative viability (Metformin + Crizotinib; first compound 31.62 µM)	relative viability (Metformin + Crizotinib; first compound 100 µM)	relative viability (Metformin + Crizotinib; first compound 316.23 µM)	relative viability (Metformin + Crizotinib; first compound 1000 µM)	relative viability (Apatinib + Vorinostat; first compound 0.08 µM)	relative viability (Apatinib + Vorinostat; first compound 0.253 µM)	relative viability (Apatinib + Vorinostat; first compound 0.8 µM)	relative viability (Apatinib + Vorinostat; first compound 2.53 µM)	relative viability (Apatinib + Vorinostat; first compound 8 µM)	relative viability (Metformin + Crizotinib; first compound 10 µM)
HCC-827	0.381	0.388	0.43	0.413	0.311	0.321	0.315	0.312	0.322	0.364	0.87	0.903	0.849	0.888	0.859	0.777	0.817	0.654	0.855	
BEN	0.551	0.601	0.492	0.452	0.42	0.768	0.777	0.646	0.661	0.752	1.24	1.15	1.01	1.13	0.584	0.62	0.609	0.589	0.536	1.16
NCI-H1755	0.64	0.542	0.529	0.506	0.447	0.685	0.535	0.643	0.644	0.635	0.792	0.744	0.756	0.753	0.846	0.7	0.783	0.705	0.586	0.677
LOU-NH91	0.741	0.729	0.618	0.601	0.546	0.787	0.799	0.848	0.797	0.79	0.806	0.766	0.802	0.847	0.974	0.97	0.82	0.816	0.82	0.747
LC-2-ad	0.516	0.522	0.466	0.462	0.446		0.736	0.826	0.583	0.642	0.357	0.338	0.415	0.378	0.735	0.753	0.721	0.633	0.665	0.369
ChaGo-K-1	0.194	0.227	0.193	0.208	0.178	0.524	0.535	0.512	0.481	0.509	1.07	1.09	1.13	1.19	0.838	0.843	0.789	0.656	0.565	1.16
COR-L 105	0.387	0.313	0.355	0.351	0.304	0.588	0.64	0.695	0.719	0.697	0.841	0.821	0.745	0.697	1.09	0.795	0.872	0.782	0.805	0.71
